Values quoted from earlier work as cited in patent publication US20160296513A1 (Teva Pharmaceutical Industries Ltd., priority 2013, published 2016).

Assays:
[1] = test system: genes related to antigen presentation and corresponding inflammatory pathways; details: mainly via the NFkB pathway
[2] = in vivo
[3] = test system: MS
[4] = test system: relapsing-remitting multiple sclerosis (RRMS); details: CARE-MS I, vs interferon beta-1a
[5] = test system: multiple sclerosis patients; details: human, in vivo
[6] = test system: first-line treatment-refractory RRMS; details: CARE-MS II

oral bioavailability [2]	Molecule	suppression of genes related to antigen presentation and corresponding inflammatory pathways [1]	neurodegeneration and non-relapse-dependent disability progression ([3]; in MS)	Confirmed Disease Progression (CDP) ([3]; unexplained by inflammatory markers)	relapse ([4]; 12 mg/day IV 5 days at Month 0, 3 days at Month 12)	disability endpoints [4]	depletion repletion pattern for T cells, B cells and monocytes [5]	effect on inflammatory axis [5]	accumulation of disability [6]	relapse rates [6]
high	CCN(C(=O)c1c(O)c2c(Cl)cccc2n(C)c1=O)c1ccccc1 [Laquinimod, 5-chloro-N-ethyl-4-hydroxy-1-methyl-2-oxo-N-phenyl-1,2-dihydroquinoline-3-carboxamide]	induced suppression	showed potential for slowing neurodegeneration and reducing non-relapse-dependent disability progression	sustain Confirmed Disease Progression (CDP)						
	Alemtuzumab: recombinant DNA-derived humanized monoclonal IgGlx antibody raised against CD52				reduction of relapse	did not show benefit	well characterized depletion repletion pattern	large and sustained	sustain accumulation of disability	reduce relapse rates
